Literature values, collected in US20050250804A1, “Pharmaceutical gel formulations” (Glenmark Pharmaceuticals Limited, priority 2004, published 2005).

Key:
human subjects = conditions: repeated insult patch test, 50 human subjects, total of 15 applications; manufacturer's brochure
[1] = test system: Interleukin-2, interferon gamma, Interleukin-4 and Interleukin-10 cytokine synthesis in human T cells

Row | Compound | primary dermal irritation / sensitization (human subjects) | PII (rabbit skin) | skin irritation (rabbit skin) | concentration inhibiting IL-2, interferon gamma (Th1-type), IL-4 and IL-10 (Th2-type) cytokine synthesis [1]
1 | CN1CCCC1=O [Pharmasolve®, N-methyl-2-pyrrolidone] | neither a primary dermal irritant nor a sensitizer | 0.5 | practically nonirritating | 
2 | CC[C@@H]1/C=C(\C)C[C@H](C)C[C@H](OC)[C@H]2O[C@@](O)(C(=O)C(=O)N3CCCC[C@H]3C(=O)O[C@H](/C(C)=C/[C@@H]3CC[C@H](Cl)[C@H](OC)C3)[C@H](C)[C@@H](O)CC1=O)[C@H](C)C[C@@H]2OC [pimecrolimus, (1R,9S,12S,13R,14S,17R,18E,21 S,23S,24R,25S,27R)-12-[(1E)-2-{(1R,3R,4S)-4-chloro-3-methoxycyclohexyl}-1-methylvinyl]-17-ethyl-1,14-dihydroxy-23,25-dimethoxy-13,19,21,27-tetramethyl-11,28-dioxa-4-aza-tricyclo[22.3.1.04,9]octacos-18-ene-2,3,10,16-tetraone] |  |  |  | nanomolar concentrations
